Values after ≈ are worked out from the molar mass of the structure shown.
Details: buffer; pH 7.4; 200.0 µM

SMILES	solubility kinetic
Cc1ccc(NC(=O)O/N=C/c2cccc([N+](=O)[O-])c2)cc1	9.3 µg/mL (≈ 31.1 µM)
C[N+](C)(C)CCOP(=O)([O-])OP(=O)([O-])OC[C@H]1O[C@@H](n2ccc(N)nc2=O)[C@H](O)[C@@H]1O.[Na+]	3.7 µg/mL
Cc1ccc(CC2C(=O)N(c3cc(C)ccc3C)C(=O)C2C)cc1 (centres undefined)	4.6 µg/mL (≈ 14.3 µM)
c1ccc(C2CN3CCC2CC3)cc1 (centres undefined)	> 28.1 µg/mL
NC(=O)Cn1ccc(O)c(Cc2ccc(Cl)cc2Cl)c1=O	> 49.1 µg/mL
Cc1ccc(NC(=O)C2CCCN2C(=O)OCc2ccccc2)c(C)c1 (centres undefined)	18.5 µg/mL (≈ 52.5 µM)
Brc1ccc2ncnc(NCc3cccnc3)c2c1	34.3 µg/mL (≈ 109 µM)
COc1ccccc1/C=[N+](\[O-])C1SC(=S)N(C)C1(C)C (centres undefined)	> 46.6 µg/mL
O=C(CSc1cccc[n+]1[O-])c1cccs1	28 µg/mL (≈ 111 µM)
O=[N+]([O-])c1ccc(N2CCNCC2)cc1N1CCCCC1	> 43.6 µg/mL
CN1CCSc2ccc(C(=O)Nc3ccc(Cl)cc3)cc21	0.5 µg/mL (≈ 1.57 µM)
N#Cc1ccc(Sc2ccccn2)c([N+](=O)[O-])c1	36.5 µg/mL (≈ 142 µM)
CCCC1C2C(=O)N(c3cccc(C)c3)C(=O)C2ON1c1ccccc1 (centres undefined)	51.1 µg/mL (≈ 146 µM)
CSCCOC(=O)C1=C(C)NC(=O)NC1c1ccc2c(c1)OCO2 (centres undefined)	> 52.6 µg/mL
Cn1cccc1C(=O)OCc1nc2ccccc2c(=O)[nH]1	29.6 µg/mL (≈ 104 µM)
CCC(C)(C(=O)NC1CCCC1)N(C)C(=O)c1ccccn1 (centres undefined)	> 45.5 µg/mL
Cc1cccc(NC(=O)C(=O)NCCc2c[nH]c3ccccc23)c1C	1.4 µg/mL (≈ 4.17 µM)
COc1cc(NC(=O)C(c2ccccc2)c2ccccc2)c(C(=O)O)cc1OC	> 58.7 µg/mL
Cn1c(=O)n(CCO)c(=O)c2c1nc(Br)n2Cc1ccccc1	> 56.9 µg/mL
Cc1cc(C(=O)Nc2ccccc2[N+](=O)[O-])cs1	1.6 µg/mL (≈ 6.1 µM)
COc1cc(/C=C/C(=O)O)cc(S(=O)(=O)NCC2CCCO2)c1OC (centres undefined)	53.3 µg/mL (≈ 144 µM)
O=C(COC(=O)C1CCCO1)Nc1nc(-c2ccc(F)cc2)cs1 (centres undefined)	> 52.6 µg/mL
Cc1ccc(S(=O)(=O)Nc2ccc3ccccc3n2)cc1	33.5 µg/mL (≈ 112 µM)
COc1cccc(CN2CCNCC2)c1OC	20.3 µg/mL (≈ 85.9 µM)

SMILES	solubility kinetic
O=c1[nH]c(=S)[nH]c2scc(-c3ccc(Br)cc3)c12	9.1 µg/mL (≈ 26.8 µM)
C=CCN(Cc1cccs1)C(=O)COc1ccc2c(c1)OCO2	> 49.7 µg/mL
CCCC(=O)Oc1cccc(C2NC(=O)c3ccccc3O2)c1 (centres undefined)	18.8 µg/mL (≈ 60.4 µM)
COC(=O)c1ccccc1NC(=O)c1ccc2c(c1)CC(C)O2 (centres undefined)	2.4 µg/mL (≈ 7.71 µM)
O=C(COC(=O)c1cccnc1)Nc1cccc2ccccc12	42.1 µg/mL (≈ 137 µM)
COc1ccccc1NC(=O)Nc1ccc(C)cn1	0.8 µg/mL (≈ 3.11 µM)
O=C1CCCN1c1ccc(N2CCCC2=O)cc1	> 36.6 µg/mL
O=C(/C=C/c1ccco1)N1CCN(c2ccc(F)cc2)CC1	5.6 µg/mL (≈ 18.6 µM)
O=c1cc(Cl)[nH]c(=O)n1Cc1ccc(F)cc1	34.9 µg/mL (≈ 137 µM)
Cc1ccc(OCCC(=O)OCC(=O)NC2CCCC(C)C2C)cc1 (centres undefined)	15.9 µg/mL (≈ 45.8 µM)
Cc1ccccc1NC(=S)Nc1ccc2[nH]c(=O)[nH]c2c1	41.7 µg/mL (≈ 140 µM)
CCN1CCN(C(=O)C2COc3ccccc3O2)CC1 (centres undefined)	> 41.5 µg/mL
Cc1cccc(CNS(=O)(=O)c2csc(C(N)=O)c2)c1	> 46.6 µg/mL
CCc1ccc(Nc2nc(C)cc(C)c2C(N)=O)cc1	> 40.4 µg/mL
Cc1cc(C)c(C#N)c(SCC(=O)Nc2nonc2N)n1	15.3 µg/mL (≈ 50.3 µM)
Cc1ccc(CC2SC(N=C(N)N)=NC2=O)cc1 (centres undefined)	> 39.3 µg/mL
O=[N+]([O-])c1ccc(N2CCN(Cc3ccncc3)CC2)cc1	35.3 µg/mL (≈ 118 µM)
COc1ccccc1NCCC(=O)O	> 29.3 µg/mL
O=C(CNCc1ccccc1)Nc1ccc(Cl)cc1	38.6 µg/mL (≈ 140 µM)
COCCCNc1oc(/C=C/c2ccccc2)nc1C#N	3.7 µg/mL (≈ 13.1 µM)
O=C(COC(=O)/C=C/c1ccc(OC(F)F)cc1)Nc1cccc(S(=O)(=O)N2CCOCC2)c1	7.3 µg/mL (≈ 14.7 µM)
COc1ccccc1N1C(=O)c2cccc3cccc(c23)C1=O	< 0.6 µg/mL
CCN(CC(=O)NCc1ccc(F)cc1)C(=O)c1cc2ccccc2o1	47.2 µg/mL (≈ 133 µM)
Cc1ccsc1CNC1CCCCC1	24.1 µg/mL (≈ 115 µM)

SMILES	solubility kinetic
Nc1c2c(nn1-c1ccccc1)CCC2	> 29.9 µg/mL
O=C(COc1ccc2ccccc2c1)NCC1CCCO1 (centres undefined)	36.9 µg/mL (≈ 129 µM)
O=C(NCCC(=O)N1CCN(c2ccccn2)CC1)c1ccc(Cl)cc1	> 55.9 µg/mL
CN(CC(=O)NCc1ccco1)S(=O)(=O)c1ccc(F)cc1	> 49 µg/mL
CNc1ccc([N+](=O)[O-])cc1C(=O)O	26.7 µg/mL (≈ 136 µM)
CCCCN1C(=O)CC(Sc2ncccc2C(=O)O)C1=O (centres undefined)	39.9 µg/mL (≈ 129 µM)
C=CCN1C(=O)C2(OCCCO2)c2cccc(Cl)c21	15.1 µg/mL (≈ 54 µM)
Cc1ccccc1NC(=O)CSc1nnc(-c2ccccn2)o1	> 49 µg/mL
COc1ccc(NC(=O)CNC(=O)c2c(C)nn(C)c2Cl)cc1	> 50.5 µg/mL
O=C(c1ccc(F)cc1)c1ccc(-c2ccc(F)cc2)nc1	0.9 µg/mL (≈ 3.05 µM)
O=[N+]([O-])c1cccc(CN2CCN(c3ncccn3)CC2)c1	32.2 µg/mL (≈ 108 µM)
O=C(Nc1ccccc1C(=O)NCCc1ccc(O)cc1)c1ccco1	24.2 µg/mL (≈ 69.1 µM)
CCN1CCN(S(=O)(=O)c2ccc(Cl)c(C(=O)NCc3nc4ccccc4[nH]3)c2)CC1	18.8 µg/mL (≈ 40.7 µM)
O=c1[nH]c2ccccc2nc1-c1ccccc1	3.9 µg/mL (≈ 17.5 µM)
Cc1cccc2c3c([nH]c12)CCNC3.Cl	> 33.4 µg/mL
Cc1onc(NC(=O)NC(=O)c2c(F)cccc2Cl)c1Br	8.1 µg/mL (≈ 21.5 µM)
Cc1ccc(S(=O)(=O)N(C)C)cc1NC(=O)C1CCC1	39.7 µg/mL (≈ 134 µM)
CC1(C)C(=O)Nc2ccccc2N1C(=O)COC(=O)c1cccc(O)c1	20.3 µg/mL (≈ 57.3 µM)
O=C(Nc1nc2c(F)c(F)c(F)cc2s1)c1ccco1	< 0.3 µg/mL
CC(=O)c1ccc(Oc2ncnc(N)c2[N+](=O)[O-])cc1	2.3 µg/mL (≈ 8.39 µM)
c1ccc(-c2ncc(CN3CCN(c4ccccn4)CC3)[nH]2)cc1	45.2 µg/mL (≈ 142 µM)
CCOC(=O)CNC(=O)C12CC3CC(CC(C3)C1)C2	37.8 µg/mL (≈ 142 µM)
CCOP(=O)(OCC)C(Nc1ccc(C)cc1)c1ccco1 (centres undefined)	46.3 µg/mL (≈ 143 µM)
O=C(Cc1ccc(F)cc1)Nc1nc(-c2ccc(F)cc2)cs1	< 0.4 µg/mL

SMILES	solubility kinetic
Cc1noc(C(=O)N(C)c2ccccc2)c1Cl	33.8 µg/mL (≈ 135 µM)
CCOC(=O)c1cc(CC)sc1/N=C/C1C(=O)CCCC1=O	19.5 µg/mL (≈ 60.7 µM)
COc1ccc2nc(NC(=O)NC3CCCCC3)sc2c1	< 0.2 µg/mL
NC(=O)c1cccnc1	2.8 µg/mL (≈ 22.9 µM)
Cc1cnc(NC(=O)/C=C/c2ccc(Br)o2)s1	0.8 µg/mL (≈ 2.55 µM)
CC(C)C(=O)NC(NC1CCS(=O)(=O)C1)C(Cl)(Cl)Cl (centres undefined)	> 52.8 µg/mL
Cc1noc(C)c1C(=O)Nc1nc2ccc(Cl)cc2s1	2.1 µg/mL (≈ 6.82 µM)
O=C(COC(=O)c1ccc(S(=O)(=O)N2CCOCC2)cc1)NCc1ccccc1	8.6 µg/mL (≈ 20.6 µM)
COc1ccc(NC(=O)CSc2ccccn2)c([N+](=O)[O-])c1	7.3 µg/mL (≈ 22.9 µM)
CN(C)C(=O)c1cc(C(=O)c2ccc(C(F)(F)F)cc2)c[nH]1	1.6 µg/mL (≈ 5.16 µM)
COc1ccc(NC(=O)CCCC(=O)NCCc2ccc(OC)c(OC)c2)cc1	46 µg/mL (≈ 115 µM)
COc1ccc(N2CCOCC2)c(NC(=O)c2cccs2)c1	47.7 µg/mL (≈ 150 µM)
COC(=O)c1sccc1NC(=S)N1C(C)CCCC1C (centres undefined)	20.3 µg/mL (≈ 65 µM)
CC(C)c1ccc(S(=O)(=O)c2cnc(=S)[nH]c2N)cc1	0.9 µg/mL (≈ 2.91 µM)
COc1ccc(Nc2cc(Nc3ccc(OC)cc3)ncn2)cc1	< 0.2 µg/mL
O=C(COC(=O)CC1CC2CCC1C2)NCc1ccc(Cl)cc1 (centres undefined)	6.2 µg/mL (≈ 18.5 µM)
O=C(CCn1c(=O)oc2ccccc21)Nc1ccc(C(=O)O)cc1	> 48.9 µg/mL
COC(=O)c1ccc(Cl)c(NC(=O)c2cccc([N+](=O)[O-])c2C)c1	0.7 µg/mL (≈ 2.01 µM)
CCOCCN(C(=O)c1ccccc1Cl)c1ccccc1	41.1 µg/mL (≈ 135 µM)
O=S(=O)(NCc1cn2ccccc2n1)c1cccs1	> 44 µg/mL
COc1ccc(CCNC(=O)c2oc3ccc(OC)cc3c2C)cc1	2.3 µg/mL (≈ 6.78 µM)
Cc1cc(C)cc(NC(=O)CCn2ccnc2)c1	> 36.5 µg/mL
O=S(=O)(c1ccc(SCCO)nc1)N1CCOCC1	> 45.7 µg/mL
COc1cccc(NC(=O)COC(=O)C2CC2)c1	> 37.4 µg/mL

SMILES	solubility kinetic
Cc1ccccc1NC(=O)COc1cccc2c1CCNC2=O	46.1 µg/mL (≈ 149 µM)
COc1ccccc1NC(=O)c1ccc2c(c1)CCN2S(C)(=O)=O	> 52 µg/mL
CCN(CC)C(=S)SCC(=O)Nc1ncc2c(n1)CC(C)(C)CC2=O	2.1 µg/mL (≈ 5.52 µM)
Cc1ccc(Nc2nc(N)c3ccccc3n2)cc1C.Cl	5.9 µg/mL
CSc1nc(C)cc(Oc2ccc(OCC(N)=O)nn2)n1	> 46.1 µg/mL
COc1cc(NC(=S)Nc2ccc3c(c2)OCCO3)cc(OC)c1OC	> 56.5 µg/mL
O=C(CNC(=O)c1ccccc1F)N/N=C/c1ccco1	> 43.4 µg/mL
O=C1CCCC(=O)C1C1c2ccccc2CCN1C(=O)CCl (centres undefined)	> 48 µg/mL
CCN(CC)CC(O)Cn1c(-c2ccccc2Cl)nc2ccccc21 (centres undefined)	> 53.7 µg/mL
N#CC(=C=[N-])c1nc2ccccc2nc1-[n+]1cccc(NC(=O)c2cccs2)c1	1.5 µg/mL (≈ 3.78 µM)
Cc1ncc(CSc2nccc(=O)[nH]2)c(CO)c1O	> 41.9 µg/mL
Cc1cc2c(cc1C)C(c1cccc(F)c1)CC(=O)N2 (centres undefined)	< 0.6 µg/mL
S=C(NCc1cccs1)Nc1cccc2ccccc12	30.5 µg/mL (≈ 102 µM)
COCCNc1ccc(N2C(=O)C3CCCCC3C2=O)cc1[N+](=O)[O-] (centres undefined)	50.8 µg/mL (≈ 146 µM)
N=C1C=CC=C2C1=NC1(CCCCC1)N2O	> 32.6 µg/mL
O=C(Nc1ccc(NC(=O)c2cccs2)cc1)c1ccccc1	< 0.3 µg/mL
O=C(c1ccc2c(c1)OCCO2)N1CCN(c2ccccn2)CC1	> 48.8 µg/mL
Cc1cc(C(=O)COC(=O)CC(NC(N)=O)c2ccc(Cl)cc2)c(C)n1C (centres undefined)	29.2 µg/mL (≈ 74.5 µM)
O=S(=O)(NCc1cccs1)c1ccc(Cl)s1	40.5 µg/mL (≈ 138 µM)
CSc1nc(SC(C)C(=O)O)c2c3c(sc2n1)COC(C)(C)C3 (centres undefined)	> 55.6 µg/mL
CCN(CC)S(=O)(=O)c1cc(NC(=O)CCc2c(C)noc2C)ccc1C	> 59 µg/mL
O=[N+]([O-])c1ncccc1OCc1ccc(Cl)c(Cl)c1	0.4 µg/mL (≈ 1.34 µM)
COc1cc2[nH]c(=S)nc(NCc3ccc(C)cc3)c2cc1OC	3.8 µg/mL (≈ 11.1 µM)
